Measurements reported in patent US20190328706A1, “COMPOSITIONS COMPRISING AN INTEGRIN INHIBITOR AND AGENTS WHICH INTERACT WITH A CHEMOKINE AND METHODS OF USE THEREOF” (Saint Louis University, priority 2016, published 2019).
pIC50: −log10 of the molar value. Read-outs that look alike come from different tables or passages of the source.

Test system: human G2 acute lymphoblastic leukemia (ALL) cells
Assay: Flow cytometry cell-based assay: inhibition of soluble VCAM-1 binding to G2 ALL cells
Conditions: for pIC50: inhibition of sVCAM-1 binding to human G2 ALL cells, read-out: sVCAM-1 IC50; for inhibition of sVCAM-1 binding compared with other inhibitors / inhibition of sVCAM-1 binding compared with Firategrast: flow cytometry; for inhibition of sVCAM-1 binding compared with other inhibitors: FIG. 6, 7, 10, 11; for inhibition of sVCAM-1 binding compared with Firategrast: FIG. 5, 8, 9, 12
Method: (§1) Compounds were tested for their ability to inhibit the binding of soluble VCAM-1 to human G2 acute lymphoblastic leukemia (ALL) cells. Briefly, G2 ALL cells are pre-incubated with increasing concentrations (0.001 to 1000 nM) of compounds for 30 minutes. Soluble VCAM/Fc chimera protein (R&D systems) is then added to the mixture and the cells incubated for an additional 30 minutes. Afterwards, cells are washed and VCAM-1 is detected using PE-conjugated secondary mAbs. In each experiment, an aliquot of cells will be stained with isotype control mAbs to serve as a negative control. The percentage of VCAM-1 binding cells was then determined by flow cytometry.
as §1, with “(ALL) cells or 5TGMI myeloma” for “(ALL)”, “ALL or 5TGMI” for “ALL”

Row | pIC50 (Table 12) | pIC50 (Table 8) | SMILES | other results
1 | 7.14 |  | COc1cc(C(N)=O)cc(OC)c1-c1ccc(C[C@H](NC(=O)c2c(Cl)cc(C(=O)O)cc2Cl)C(=O)O)cc1 [Cmpd 21, 4-{[(1S)-2-[4-(4-carbamoyl-2,6-dimethoxyphenyl)phenyl]-1-carboxyethyl]carbamoyl}-3,5-dichlorobenzoic acid] | 
2 | 9.33 |  | COc1cc(CO)cc(OC)c1-c1ccc(C[C@H](NC(=O)c2c(Cl)cc(C(=O)O)cc2Cl)C(=O)O)cc1 [Cmpd 22, 4-{[(1S)-1-carboxy-2-{4-[4-(hydroxymethyl)-2,6-dimethoxyphenyl]phenyl}ethyl]carbamoyl}-3,5-dichlorobenzoic acid] | 
3 | 6.66 |  | COc1cc(C(=O)O)cc(OC)c1-c1ccc(C[C@H](NC(=O)c2c(Cl)cc(C(=O)O)cc2Cl)C(=O)O)cc1 [Cmpd 24, 4-{4-[(2S)-2-carboxy-2-[(4-carboxy-2,6-dichlorophenyl)formamido]ethyl]phenyl}-3,5-dimethoxybenzoic acid] | 
4 | 8.80 |  | COc1cc(CF)cc(OC)c1-c1ccc(C[C@H](NC(=O)c2c(Cl)cc(C(=O)O)cc2Cl)C(=O)O)cc1 [Cmpd 26, 4-{[(1S)-1-carboxy-2-{4-[4-(fluoromethyl)-2,6-dimethoxyphenyl]phenyl}ethyl]carbamoyl}-3,5-dichlorobenzoic acid] | 
5 |  | 7.14 | COc1cc(C(N)=O)cc(OC)c1-c1ccc(C[C@H](NC(=O)c2c(Cl)cc(C(=O)O)cc2Cl)C(=O)O)cc1 [Compound 1219, 4-{[(1S)-2-[4-(4-carbamoyl-2,6-dimethoxyphenyl)phenyl]-1-carboxyethyl]carbamoyl}-3,5-dichlorobenzoic acid] | 
6 |  | 9.33 | COc1cc(CO)cc(OC)c1-c1ccc(C[C@H](NC(=O)c2c(Cl)cc(C(=O)O)cc2Cl)C(=O)O)cc1 [Compound 1220, 4-{[(1S)-1-carboxy-2-{4-[4-(hydroxymethyl)-2,6-dimethoxyphenyl]phenyl}ethyl]carbamoyl}-3,5-dichlorobenzoic acid] | inhibition of sVCAM-1 binding compared with other inhibitors: more potent inhibitors than 823
7 |  | 6.66 | COc1cc(C(=O)O)cc(OC)c1-c1ccc(C[C@H](NC(=O)c2c(Cl)cc(C(=O)O)cc2Cl)C(=O)O)cc1 [Compound 1222, 4-{4-[(2S)-2-carboxy-2-[(4-carboxy-2,6-dichlorophenyl)formamido]ethyl]phenyl}-3,5-dimethoxybenzoic acid] | 
8 |  | 7.15 | COc1cc(C(C)(C)O)cc(OC)c1-c1ccc(C[C@H](NC(=O)c2c(Cl)cc(C(=O)O)cc2Cl)C(=O)O)cc1 [Compound 1223, 4-{[(1S)-1-carboxy-2-{4-[4-(2-hydroxypropan-2-yl)-2,6-dimethoxyphenyl]phenyl}ethyl]carbamoyl}-3,5-dichlorobenzoic acid] | 
9 |  | 8.80 | COc1cc(CF)cc(OC)c1-c1ccc(C[C@H](NC(=O)c2c(Cl)cc(C(=O)O)cc2Cl)C(=O)O)cc1 [Compound 1224, 4-{[(1S)-1-carboxy-2-{4-[4-(fluoromethyl)-2,6-dimethoxyphenyl]phenyl}ethyl]carbamoyl}-3,5-dichlorobenzoic acid] | inhibition of sVCAM-1 binding compared with other inhibitors: more potent inhibitors than 823

Further lines, the compound ahead of its results:

Row | SMILES | pIC50 (Table 12) | pIC50 (Table 8) | other results
10 | CCOCc1cc(OC)c(-c2ccc(C[C@H](NC(=O)c3c(Cl)cc(C(=O)O)cc3Cl)C(=O)O)cc2)c(OC)c1 [Cmpd 23, 4-{[(1S)-1-carboxy-2-{4-[4-(ethoxymethyl)-2,6-dimethoxyphenyl]phenyl}ethyl]carbamoyl}-3,5-dichlorobenzoic acid] | 9.24 |  | 
11 | COc1cc(C(C)(C)O)cc(OC)c1-c1ccc(C[C@H](NC(=O)c2c(Cl)cc(C(=O)O)cc2Cl)C(=O)O)cc1 [Cmpd 25, 4-{[(1S)-1-carboxy-2-{4-[4-(2-hydroxypropan-2-yl)-2,6-dimethoxyphenyl]phenyl}ethyl]carbamoyl}-3,5-dichlorobenzoic acid] | 7.15 |  | 
12 | CCOCc1cc(OC)c(-c2ccc(C[C@H](NC(=O)[C@]3(C)CCCN3S(=O)(=O)c3cc(Cl)cc(Cl)c3)C(=O)O)cc2)c(OC)c1 [Cmpd 33, (S)-2-((S)-1-((3,5-dichlorophenyl)sulfonyl)-2-methylpyrrolidine-2-carboxamido)-3-(4′-(ethoxymethyl)-2′,6′-dimethoxy-[1,1′-biphenyl]-4-yl)propanoic acid] | 8.61 |  | 
13 | CCOCc1cc(OC)c(-c2ccc(C[C@H](NC(=O)[C@]3(C)CCCN3S(=O)(=O)c3ccccc3)C(=O)O)cc2)c(OC)c1 [Cmpd 34, (S)-3-(4′-(ethoxymethyl)-2′,6′-dimethoxy-[1,1′-biphenyl]-4-yl)-2-((S)-2-methyl-1-(phenylsulfonyl)pyrrolidine-2-carboxamido)propanoic acid] | 7.93 |  | 
14 | COc1cc(COC2COC2)cc(OC)c1-c1ccc(C[C@H](NC(=O)[C@@H]2CCCN2S(=O)(=O)c2cc(Cl)cc(Cl)c2)C(=O)O)cc1 [Compound 009] |  |  | pIC50 (Table 10): 8.35
15 | COc1cccc(N2CCC[C@H]2C(=O)N[C@@H](Cc2ccc(-c3c(OC)cccc3OC)cc2)C(=O)O)c1 [Compound 822] |  |  | pIC50 (Table 10): 7.16
16 | COc1cccc(OC)c1-c1ccc(C[C@H](NC(=O)C2(c3ccccn3)CCCC2)C(=O)O)cc1 [Compound 825] |  |  | pIC50 (Table 10): 7.32
17 | CCOCc1cc(OC)c(-c2ccc(C[C@H](NC(=O)c3c(Cl)cc(C(=O)O)cc3Cl)C(=O)O)cc2)c(OC)c1 [Compound 1221, 4-{[(1S)-1-carboxy-2-{4-[4-(ethoxymethyl)-2,6-dimethoxyphenyl]phenyl}ethyl]carbamoyl}-3,5-dichlorobenzoic acid] |  | 9.24 | inhibition of sVCAM-1 binding compared with other inhibitors: more potent inhibitors than 823
18 | COCCOCc1cc(OC)c(-c2ccc(C[C@H](NC(=O)c3c(Cl)cc(C(=O)O)cc3Cl)C(=O)O)cc2)c(OC)c1 [Compound 1554, (S)-4-((1-carboxy-2-(2′,6′-dimethoxy-4′-((2-methoxyethoxy)methyl)-[1,1′-biphenyl]-4-yl)ethyl)carbamoyl)-3,5-dichlorobenzoic acid] |  | 8.83 | inhibition of sVCAM-1 binding compared with Firategrast: greater inhibition of sVCAM-1 binding than did Firategrast
19 | CCCCCCOCc1cc(OC)c(-c2ccc(C[C@H](NC(=O)c3c(Cl)cc(C(=O)O)cc3Cl)C(=O)O)cc2)c(OC)c1 [Compound 1555, (S)-4-((1-carboxy-2-(4′-((hexyloxy)methyl)-2′,6′-dimethoxy-[1,1′-biphenyl]-4-yl)ethyl)carbamoyl)-3,5-dichlorobenzoic acid] |  | 7.89 | inhibition of sVCAM-1 binding compared with Firategrast: greater inhibition of sVCAM-1 binding than did Firategrast
20 | COCCOCCOCCOCc1cc(OC)c(-c2ccc(C[C@H](NC(=O)c3c(Cl)cc(C(=O)O)cc3Cl)C(=O)O)cc2)c(OC)c1 [Compound 1570, (S)-4-((2-(4′-(2,5,8,11-tetraoxadodecyl)-2′,6′-dimethoxy-[1,1′-biphenyl]-4-yl)-1-carboxyethyl)carbamoyl)-3,5-dichlorobenzoic acid] |  | 8.53 | inhibition of sVCAM-1 binding compared with Firategrast: greater inhibition of sVCAM-1 binding than did Firategrast
21 | CCCCCC(=O)OCc1cc(OC)c(-c2ccc(C[C@H](NC(=O)c3c(Cl)cc(C(=O)O)cc3Cl)C(=O)O)cc2)c(OC)c1 [Compound 1571, (S)-4-((1-carboxy-2-(4′-((hexanoyloxy)methyl)-2′,6′-dimethoxy-[1,1′-biphenyl]-4-yl)ethyl)carbamoyl)-3,5-dichlorobenzoic acid] |  | 8.35 | inhibition of sVCAM-1 binding compared with Firategrast: greater inhibition of sVCAM-1 binding than did Firategrast
